Measurements published in ChEMBL document CHEMBL4311942, “Design of Trp-Rich Dodecapeptides with Broad-Spectrum Antimicrobial Potency and Membrane-Disruptive Mechanism” (J Med Chem, 2019).
Values after ≈ are worked out from the molar mass of the structure shown. Where a SMILES comes first, the peptide text is derived from it.

Experiments:
Staphylococcus aureus [1] = assay: Antibacterial activity against Staphylococcus aureus ATCC 25923 incubated for 18 to 24 hrs by broth microdilution method; assay type: functional
Staphylococcus aureus [2] = assay: Antibacterial activity against Staphylococcus aureus ATCC 29213 incubated for 18 to 24 hrs by broth microdilution method; assay type: functional
Salmonella typhimurium = assay: Antibacterial activity against Salmonella enterica serovar typhimurium C77-31 incubated for 18 to 24 hrs by broth microdilution method; assay type: functional, Salmonella enterica subsp. enterica serovar Typhimurium
Escherichia coli [3] = assay: Antibacterial activity against Escherichia coli UB1005 incubated for 18 to 24 hrs by broth microdilution method; assay type: functional
Escherichia coli [4] = assay: Antibacterial activity against Escherichia coli ATCC 25922 incubated for 18 to 24 hrs by broth microdilution method; assay type: functional
[5] = tested on: Staphylococcus epidermidis; assay: Antibacterial activity against Staphylococcus epidermidis ATCC 12228 incubated for 18 to 24 hrs by broth microdilution method; assay type: functional
Erythrocyte = assay: Haemolytic activity in human erythrocytes assessed as lowest concentration causing 5% hemolysis after 1 hr; assay type: ADME, cell-based
[6] = Therapeutic index, ratio of MHC for human RBC to geometric mean of peptide MIC for Escherichia coli ATCC 25922; assay type: toxicity; settings: pooled result: one value given for 6 cell lines, strains, targets or settings, read-out: TI
[7] = Cytotoxicity against mouse RAW264.7 cells assessed as cell survival at <= 32 uM after 24 hrs by MTT assay relative to control; assay type: cell-based; settings: RAW264.7 cells, up to 32 µM, read-out: Activity
Escherichia coli [8] = assay: Antibacterial activity against Escherichia coli 20411 clinical isolate incubated for 18 to 24 hrs by broth microdilution method; assay type: functional
Acinetobacter baumannii [9] = assay: Antibacterial activity against Acinetobacter baumannii AB1901 clinical isolate incubated for 18 to 24 hrs by broth microdilution method; assay type: functional
Acinetobacter baumannii [10] = assay: Antibacterial activity against Acinetobacter baumannii AB1902 clinical isolate incubated for 18 to 24 hrs by broth microdilution method; assay type: functional
Pseudomonas aeruginosa = assay: Antibacterial activity against Pseudomonas aeruginosa 25349 clinical isolate incubated for 18 to 24 hrs by broth microdilution method; assay type: functional
Staphylococcus aureus [11] = assay: Antibacterial activity against Staphylococcus aureus 11011 incubated for 18 to 24 hrs by broth microdilution method; assay type: functional
Escherichia coli [12] = assay: Antibacterial activity against ciprofloxacin-resistant Escherichia coli ATCC 25922 incubated for 18 to 24 hrs; assay type: functional
[13] = Resistance index, ratio of MIC for antibacterial activity against ciprofloxacin-resistant Escherichia coli to MIC for Escherichia coli ATCC 25922 incubated for 18 to 24 hrs by broth microdilution method; assay type: functional
Lipopolysaccharide (LPS) = assay: Displacement of BODIPY-TR-cadaverine from Escherichia coli O111:B4 LPS assessed as increase in fluorescence intensity at 64 uM by spectrofluorophotometric method relative to control
[14] = Salmonella enterica subsp. enterica serovar Typhimurium

Row | Compound | MIC (Staphylococcus aureus [1]) | MIC (Staphylococcus aureus [2]) | MIC (Salmonella typhimurium) | MIC (Escherichia coli [3]) | MIC (Escherichia coli [4]) | MIC [5] | MHC (Erythrocyte) | selectivity ratio [6] | viability at 24 h [7] | MIC (Escherichia coli [8]) | MIC (Acinetobacter baumannii [9]) | MIC (Acinetobacter baumannii [10]) | MIC (Pseudomonas aeruginosa) | MIC (Staphylococcus aureus [11]) | MIC (Escherichia coli [12]) | Ratio [13] | Activity (Lipopolysaccharide (LPS)) | MIC (Salmonella typhimurium; [14])
1 | CC(C)C[C@H](NC(=O)[C@H](CCCNC(=N)N)NC(=O)[C@H](CCCCN)NC(=O)[C@H](Cc1c[nH]c2ccccc12)NC(=O)[C@@H](NC(=O)[C@H](CCCCN)NC(=O)[C@H](CCCCN)NC(=O)[C@H](Cc1c[nH]c2ccccc12)NC(=O)[C@H](CC(C)C)NC(=O)[C@H](CCCNC(=N)N)NC(=O)[C@@H](N)CCCNC(=N)N)[C@@H](C)O)C(=O)N[C@@H](Cc1c[nH]c2ccccc12)C(N)=O (H-RRLWKKTWKRLW-NH2) | 16 µM (≈ 28.1 µg/mL) | 8 µM (≈ 14 µg/mL) | 8 µM (≈ 14 µg/mL) | 4 µM (≈ 7.02 µg/mL) | 4 µM (≈ 7.02 µg/mL) | 8 µM (≈ 14 µg/mL) | > 128 µM | 35.9 | ≥ 70% |  |  |  |  |  |  |  |  | 
2 | CC(C)C[C@H](NC(=O)[C@H](CCCNC(=N)N)NC(=O)[C@H](CCCCN)NC(=O)[C@H](CCCNC(=N)N)NC(=O)[C@@H](NC(=O)[C@H](Cc1c[nH]c2ccccc12)NC(=O)[C@H](CCCCN)NC(=O)[C@H](CCCNC(=N)N)NC(=O)[C@H](CC(C)C)NC(=O)[C@H](Cc1c[nH]c2ccccc12)NC(=O)[C@@H](N)CCCNC(=N)N)[C@@H](C)O)C(=O)N[C@@H](CCCCN)C(N)=O (H-RWLRKWTRKRLK-NH2) | 32 µM (≈ 55.2 µg/mL) | 64 µM (≈ 110 µg/mL) | 64 µM (≈ 110 µg/mL) | 16 µM (≈ 27.6 µg/mL) | 16 µM (≈ 27.6 µg/mL) | 16 µM (≈ 27.6 µg/mL) | > 128 µM | 8.98 | ≥ 70% |  |  |  |  |  |  |  |  | 
3 | CC(C)C[C@H](NC(=O)[C@H](CCCNC(=N)N)NC(=O)[C@H](Cc1c[nH]c2ccccc12)NC(=O)[C@H](CCCNC(=N)N)NC(=O)[C@@H](NC(=O)[C@H](CCCCN)NC(=O)[C@H](Cc1c[nH]c2ccccc12)NC(=O)[C@H](CCCNC(=N)N)NC(=O)[C@H](CC(C)C)NC(=O)[C@H](Cc1c[nH]c2ccccc12)NC(=O)[C@@H](N)CCCNC(=N)N)[C@@H](C)O)C(=O)N[C@@H](CCCCN)C(N)=O (H-RWLRWKTRWRLK-NH2) | 16 µM (≈ 28.5 µg/mL) | 4 µM (≈ 7.14 µg/mL) | 8 µM (≈ 14.3 µg/mL) | 4 µM (≈ 7.14 µg/mL) | 2 µM (≈ 3.57 µg/mL) | 16 µM (≈ 28.5 µg/mL) | > 128 µM | 40.3 | ≥ 70% |  |  |  |  |  |  |  |  | 
4 | CC(C)C[C@H](NC(=O)[C@H](CCCNC(=N)N)NC(=O)[C@@H](NC(=O)[C@H](CCCNC(=N)N)NC(=O)[C@@H](NC(=O)[C@H](CCCCN)NC(=O)[C@@H](NC(=O)[C@H](CCCNC(=N)N)NC(=O)[C@H](CC(C)C)NC(=O)[C@H](CCCNC(=N)N)NC(=O)[C@@H](N)C(C)C)C(C)C)[C@@H](C)O)C(C)C)C(=O)N[C@@H](CCCCN)C(N)=O (H-VRLRVKTRVRLK-NH2) | 64 µM (≈ 97.5 µg/mL) | 16 µM (≈ 24.4 µg/mL) | 16 µM (≈ 24.4 µg/mL) | 4 µM (≈ 6.09 µg/mL) | 4 µM (≈ 6.09 µg/mL) | 32 µM (≈ 48.7 µg/mL) | > 128 µM | 18 | ≥ 70% |  |  |  |  |  |  |  |  | 
5 | CC(C)(O/N=C(\C(=O)N[C@@H]1C(=O)N2C(C(=O)[O-])=C(C[n+]3ccccc3)CS[C@H]12)c1csc(N)n1)C(=O)O [CEFTAZIDIME] | 32 µM (≈ 17.5 µg/mL) | 16 µM (≈ 8.75 µg/mL) | 0.5 µM (≈ 0.273 µg/mL) | 0.25 µM (≈ 0.137 µg/mL) | 0.5 µM (≈ 0.273 µg/mL) | 16 µM (≈ 8.75 µg/mL) |  |  |  | 0.25 µM (≈ 0.137 µg/mL) | > 128 µM | > 128 µM | 32 µM (≈ 17.5 µg/mL) | 16 µM (≈ 8.75 µg/mL) | 16 µM (≈ 8.75 µg/mL) | 32 |  | 
6 | O=C(O)c1cn(C2CC2)c2cc(N3CCNCC3)c(F)cc2c1=O [CIPROFLOXACIN] | 0.5 µM (≈ 0.166 µg/mL) | 0.5 µM (≈ 0.166 µg/mL) | 4 µM (≈ 1.33 µg/mL) | 2 µM (≈ 0.663 µg/mL) | 2 µM (≈ 0.663 µg/mL) | 0.5 µM (≈ 0.166 µg/mL) |  |  |  |  |  |  |  | 0.5 µM (≈ 0.166 µg/mL) | 256 µM (≈ 84.8 µg/mL) |  | 1.6% | 
7 | CN(C)c1ccc(O)c2c1C[C@H]1C[C@H]3[C@H](N(C)C)C(O)=C(C(N)=O)C(=O)[C@@]3(O)C(O)=C1C2=O [MINOCYCLINE] | 0.25 µM (≈ 0.114 µg/mL) | 0.25 µM (≈ 0.114 µg/mL) | 8 µM (≈ 3.66 µg/mL) | 4 µM (≈ 1.83 µg/mL) | 1 µM (≈ 0.457 µg/mL) | 0.25 µM (≈ 0.114 µg/mL) |  |  |  | 2 µM (≈ 0.915 µg/mL) | 0.25 µM (≈ 0.114 µg/mL) | 0.25 µM (≈ 0.114 µg/mL) | 8 µM (≈ 3.66 µg/mL) | 0.25 µM (≈ 0.114 µg/mL) | 64 µM (≈ 29.3 µg/mL) | 64 |  | 
8 | CCn1cc(C(=O)O)c(=O)c2cc(F)c(N3CCNCC3)cc21 [NORFLOXACIN] | 2 µM (≈ 0.639 µg/mL) | 1 µM (≈ 0.319 µg/mL) | 0.25 µM (≈ 0.0798 µg/mL) | 4 µM (≈ 1.28 µg/mL) | 0.125 µM (≈ 0.0399 µg/mL) | 1 µM (≈ 0.319 µg/mL) |  |  |  | 0.0625 µM (≈ 0.02 µg/mL) | > 128 µM | > 128 µM | 2 µM (≈ 0.639 µg/mL) | 2 µM (≈ 0.639 µg/mL) | 1 µM (≈ 0.319 µg/mL) |  |  | 
9 | CC1COc2c(N3CCN(C)CC3)c(F)cc3c(=O)c(C(=O)O)cn1c23 (centres undefined) [OFLOXACIN] | 1 µM (≈ 0.361 µg/mL) | 0.5 µM (≈ 0.181 µg/mL) | 0.25 µM (≈ 0.0903 µg/mL) | 0.5 µM (≈ 0.181 µg/mL) | 0.125 µM (≈ 0.0452 µg/mL) | 0.5 µM (≈ 0.181 µg/mL) |  |  |  | 0.125 µM (≈ 0.0452 µg/mL) | 32 µM (≈ 11.6 µg/mL) | 32 µM (≈ 11.6 µg/mL) | 4 µM (≈ 1.45 µg/mL) | 1 µM (≈ 0.361 µg/mL) | 0.5 µM (≈ 0.181 µg/mL) | 4 |  | 
10 | CO[C@H]1/C=C/O[C@@]2(C)Oc3c(C)c(O)c4c(O)c(c(/C=N/N5CCN(C)CC5)c(O)c4c3C2=O)NC(=O)/C(C)=C\C=C\[C@H](C)[C@H](O)[C@@H](C)[C@@H](O)[C@@H](C)[C@H](OC(C)=O)[C@@H]1C [RIFAMPIN] | 0.25 µM (≈ 0.206 µg/mL) | 0.25 µM (≈ 0.206 µg/mL) | 4 µM (≈ 3.29 µg/mL) | 8 µM (≈ 6.58 µg/mL) | 4 µM (≈ 3.29 µg/mL) | 0.25 µM (≈ 0.206 µg/mL) |  |  |  | 4 µM (≈ 3.29 µg/mL) | 1 µM (≈ 0.823 µg/mL) | 1 µM (≈ 0.823 µg/mL) | 16 µM (≈ 13.2 µg/mL) |  | 8 µM (≈ 6.58 µg/mL) | 2 |  | 
11 | COLISTIN | 128 µM | 128 µM |  | 0.5 µM | 0.5 µM | 64 µM |  |  |  | 0.5 µM | 1 µM | 0.5 µM | 0.5 µM | 32 µM | 0.5 µM | 1 |  | 0.5 µM
12 | GENTAMICIN | 0.25 µM | 0.5 µM |  | 4 µM | 4 µM | 0.5 µM |  |  |  | 1 µM | > 128 µM | > 128 µM | 2 µM | 1 µM | 4 µM | 1 |  | 8 µM
